The values that follow come from patent US7045532B2 (Millennium Pharmaceuticals, Inc., priority 1999, dated 2006).

Test [1] addresses T1, ACE-2 (Homo sapiens, UniProt Q9BYF1).
T1 construct: a stop codon inserted after the serine immediately preceding the transmembrane domain; made in house; host or cells: CHO K1 cells (transient transfection, purified from conditioned medium)
Put plainly: ACE-2 Competitive Substrate Assay (ACS Assay). The test is classed as biochemical. The note with it: for Ki: Ki class, compounds tested in 5% DMSO, 12 concentrations, read-out: Human ACE-2 Activity.

Test [2] concerns the target ACE-2 (Rattus norvegicus, UniProt Q5EGZ1). Put plainly: ACE-2 Competitive Substrate Assay, rat ACE-2. In kind it is biochemical. The note with it: Ki class; compounds tested in 5% DMSO, 12 concentrations.
Method: ACE-2 enzymatic activity was assayed in microtitre plates by the following procedure. The ACE-2 assay buffer used contained 50 mM MES (Boehringer-Mannheim), 300 mM NaCl (Sigma) and 0.01% Brij-35 (Pierce Chemical Co.) at pH 6.5.
Reactions were mixed and incubated at 25° C.
The activity of the test compounds was investigated using the procedure outlined above. The compounds were tested in 5% DMSO. Enzyme activity was measured at 12 compound concentrations.
The next test has as its target T2, ACE (Sigma, A2580) (Sus scrofa, UniProt F1RRW5).
T2 construct: ACE from porcine kidney; purchased Sigma A2580; host or cells: porcine kidney
T2 sequence (F1RRW5 34-1309): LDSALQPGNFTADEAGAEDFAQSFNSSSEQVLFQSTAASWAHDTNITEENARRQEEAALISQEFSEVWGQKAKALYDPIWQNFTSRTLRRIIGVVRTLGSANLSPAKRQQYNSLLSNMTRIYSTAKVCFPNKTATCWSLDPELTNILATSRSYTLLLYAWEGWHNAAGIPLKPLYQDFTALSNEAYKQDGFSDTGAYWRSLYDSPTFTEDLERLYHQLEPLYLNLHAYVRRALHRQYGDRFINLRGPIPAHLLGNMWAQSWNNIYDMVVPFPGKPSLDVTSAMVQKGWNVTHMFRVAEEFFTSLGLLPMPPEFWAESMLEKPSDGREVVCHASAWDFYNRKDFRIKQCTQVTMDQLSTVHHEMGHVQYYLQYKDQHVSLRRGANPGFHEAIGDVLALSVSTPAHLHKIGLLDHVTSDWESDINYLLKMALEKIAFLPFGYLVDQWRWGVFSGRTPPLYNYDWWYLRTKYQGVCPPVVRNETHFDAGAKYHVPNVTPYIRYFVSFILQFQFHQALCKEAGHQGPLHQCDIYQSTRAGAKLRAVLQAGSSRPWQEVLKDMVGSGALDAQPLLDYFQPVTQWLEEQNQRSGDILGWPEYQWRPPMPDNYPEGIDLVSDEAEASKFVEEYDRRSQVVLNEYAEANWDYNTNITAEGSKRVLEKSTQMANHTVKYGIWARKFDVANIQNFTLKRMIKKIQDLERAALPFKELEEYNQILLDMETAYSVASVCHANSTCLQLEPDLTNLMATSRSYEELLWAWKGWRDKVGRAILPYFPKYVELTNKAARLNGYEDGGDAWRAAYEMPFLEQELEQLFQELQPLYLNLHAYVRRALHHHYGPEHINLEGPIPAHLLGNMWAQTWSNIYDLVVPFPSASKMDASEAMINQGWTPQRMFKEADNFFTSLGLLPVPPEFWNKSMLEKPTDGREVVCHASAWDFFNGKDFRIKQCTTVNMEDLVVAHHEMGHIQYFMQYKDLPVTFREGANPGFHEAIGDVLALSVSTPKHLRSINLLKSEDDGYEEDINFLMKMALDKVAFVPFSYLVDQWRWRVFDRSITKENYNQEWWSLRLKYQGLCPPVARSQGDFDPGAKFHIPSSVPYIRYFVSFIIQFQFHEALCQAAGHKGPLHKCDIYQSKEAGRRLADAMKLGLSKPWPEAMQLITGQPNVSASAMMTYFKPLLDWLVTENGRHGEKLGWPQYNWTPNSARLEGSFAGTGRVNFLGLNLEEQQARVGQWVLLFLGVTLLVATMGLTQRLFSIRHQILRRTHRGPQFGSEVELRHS
The test can be described thus: ACE enzymatic activity assay. The test is classed as biochemical, porcine. The note with it: Ki class; compounds tested in 5% DMSO, 12 concentrations. Summed up:
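Fluorogenic substrate cleavage by 1 nM ACE, read at 320/405 nm after EDTA stop at ~30 min. Reactions at 25 °C, pH 7.5, in HEPES/NaCl/Brij-35 buffer; compounds tested at 12 concentrations in 5% DMSO.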

The next test deals with T3, Carboxypeptidase A (Bos taurus, UniProt P00730).
T3 sequence (P00730 111-419): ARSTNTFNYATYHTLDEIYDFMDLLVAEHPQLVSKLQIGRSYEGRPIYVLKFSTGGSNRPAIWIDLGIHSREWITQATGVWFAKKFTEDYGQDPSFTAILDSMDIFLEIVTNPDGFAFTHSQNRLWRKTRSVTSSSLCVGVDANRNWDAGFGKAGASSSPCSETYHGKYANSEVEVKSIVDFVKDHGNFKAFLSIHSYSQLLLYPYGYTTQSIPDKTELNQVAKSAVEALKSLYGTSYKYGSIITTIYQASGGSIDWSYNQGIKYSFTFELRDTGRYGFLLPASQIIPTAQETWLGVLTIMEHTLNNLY
Put plainly: Carboxypeptidase A activity assay. In kind it is biochemical. The note with it: Ki class; compounds tested in 5% DMSO, 12 concentrations. The gist of the method:
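Ki obtained by correcting apparent Ki for substrate, Ki=Kiapp/(1+[S]/Km), from 12-concentration series. Enzyme activity read by absorbance at 328 nm with 5% DMSO present, EDTA stop.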

Chain of ACE-2 (Rattus norvegicus, UniProt Q5EGZ1) (Q5EGZ1 18-805): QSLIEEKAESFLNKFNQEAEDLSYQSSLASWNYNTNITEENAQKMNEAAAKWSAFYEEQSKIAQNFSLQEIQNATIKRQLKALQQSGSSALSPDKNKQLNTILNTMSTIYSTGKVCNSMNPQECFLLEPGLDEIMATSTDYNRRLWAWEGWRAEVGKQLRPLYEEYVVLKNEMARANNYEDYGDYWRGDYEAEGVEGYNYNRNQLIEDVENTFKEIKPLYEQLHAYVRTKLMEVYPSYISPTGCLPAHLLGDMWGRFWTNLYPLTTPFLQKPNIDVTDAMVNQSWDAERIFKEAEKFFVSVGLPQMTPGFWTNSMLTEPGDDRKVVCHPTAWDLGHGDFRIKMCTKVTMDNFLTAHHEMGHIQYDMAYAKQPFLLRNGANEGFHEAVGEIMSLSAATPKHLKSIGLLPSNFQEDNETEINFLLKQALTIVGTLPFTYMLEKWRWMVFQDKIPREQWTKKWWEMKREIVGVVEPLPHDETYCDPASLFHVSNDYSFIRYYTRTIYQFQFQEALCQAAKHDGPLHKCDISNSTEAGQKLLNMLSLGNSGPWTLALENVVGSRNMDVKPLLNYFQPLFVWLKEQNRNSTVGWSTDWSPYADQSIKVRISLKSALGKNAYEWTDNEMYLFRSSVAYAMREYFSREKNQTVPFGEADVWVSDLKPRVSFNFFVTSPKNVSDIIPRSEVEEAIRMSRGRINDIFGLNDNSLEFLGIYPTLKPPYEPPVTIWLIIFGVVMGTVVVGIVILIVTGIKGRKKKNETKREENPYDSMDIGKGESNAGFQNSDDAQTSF
T1 sequence (Q9BYF1 18-740 limits assumed): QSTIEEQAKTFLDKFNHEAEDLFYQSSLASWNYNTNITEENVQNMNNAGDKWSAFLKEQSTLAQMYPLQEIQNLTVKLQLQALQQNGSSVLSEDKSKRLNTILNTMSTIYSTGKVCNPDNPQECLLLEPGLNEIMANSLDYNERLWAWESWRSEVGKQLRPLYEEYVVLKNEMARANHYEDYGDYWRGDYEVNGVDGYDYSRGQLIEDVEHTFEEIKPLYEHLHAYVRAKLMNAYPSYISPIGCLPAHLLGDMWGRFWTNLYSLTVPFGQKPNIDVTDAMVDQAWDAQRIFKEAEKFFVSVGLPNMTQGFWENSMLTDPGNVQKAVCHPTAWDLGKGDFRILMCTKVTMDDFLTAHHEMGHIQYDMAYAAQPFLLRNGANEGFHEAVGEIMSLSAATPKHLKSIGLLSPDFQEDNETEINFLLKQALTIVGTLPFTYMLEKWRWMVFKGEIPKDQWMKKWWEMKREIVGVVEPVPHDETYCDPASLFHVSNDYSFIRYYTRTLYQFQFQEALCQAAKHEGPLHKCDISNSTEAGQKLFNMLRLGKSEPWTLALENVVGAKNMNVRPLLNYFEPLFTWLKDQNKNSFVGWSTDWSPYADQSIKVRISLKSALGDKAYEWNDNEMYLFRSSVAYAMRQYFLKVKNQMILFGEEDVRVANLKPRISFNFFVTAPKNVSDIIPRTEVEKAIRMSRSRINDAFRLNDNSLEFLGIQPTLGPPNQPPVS

Take `CCCC(NC(Cc1c[nH]cn1)C(=O)O)C(=O)O` (single isomer, unassigned) [DJ, 2-[1-Carboxy-2-(1H-imidazol-4-yl)-ethylamino)pentanoic acid]: the Ki is above 500 nM on ACE-2 [1]; 100 to 500 nM at ACE-2 [2]; above 50000 nM at ACE (Sigma, A2580); above 50000 nM at Carboxypeptidase A.

Consider `CCCC(N[C@@H](Cc1c[nH]cn1)C(=O)O)C(=O)O` (single isomer, unassigned) [DK, 2-[1-Carboxy-2-(1H-imidazol-4-yl)-ethylamino)pentanoic acid], for which the Ki at ACE-2 [1] was above 500 nM; at ACE-2 [2] it was above 500 nM; at ACE (Sigma, A2580), 10000 to 50000 nM; at Carboxypeptidase A, above 50000 nM.

On to `CC(C)CC(N[C@@H](Cc1cn(Cc2ccccc2)cn1)C(=O)O)C(=O)O` (single isomer, unassigned) [DL, 2-[2-(1-Benzyl-1H-imidazol-4-yl)-1-carboxy-ethylamino]-4-methyl-pentanoic acid], for which the Ki at ACE-2 [1] is above 500 nM; at ACE-2 [2], above 500 nM; on ACE (Sigma, A2580), above 50000 nM; on Carboxypeptidase A it was above 50000 nM.

With `O=C(O)C(Cc1ccc(O)cc1)N[C@@H](Cc1c[nH]cn1)C(=O)O` (single isomer, unassigned) [DN, 2-[1-Carboxy-2-(4-hydroxy-phenyl)-ethylamino]-3-(1H-imidazol-4-yl)-propionic acid], the Ki was above 500 nM on ACE-2 [1]; above 500 nM on ACE-2 [2]; above 50000 nM on ACE (Sigma, A2580); above 50000 nM on Carboxypeptidase A.

As to `CCCCC(N[C@@H](Cc1c[nH]cn1)C(=O)O)C(=O)O` (single isomer, unassigned) [ED, 2-[1-Carboxy-2-(1H-imidazol-4-yl)-ethylamino]hexanoic acid], the Ki is above 500 nM at ACE-2 [1]; 100 to 500 nM on ACE-2 [2]; above 50000 nM at ACE (Sigma, A2580); above 50000 nM on Carboxypeptidase A.

Turning to `CC(C)CC(N[C@@H](Cc1cncn1COCc1ccccc1)C(=O)O)C(=O)O` (single isomer, unassigned) [EN, 2-[2-(3-Benzyloxymethyl-3H-imidazol-4-yl)-1-carboxy-ethylamino]-4-methyl-pentanoic acid], the Ki was 100 to 500 nM at ACE-2 [1]; 100 to 500 nM at ACE-2 [2]; above 50000 nM on ACE (Sigma, A2580); above 50000 nM on Carboxypeptidase A.

Consider `CC(C)CC(N[C@@H](Cc1cncn1COCc1ccccc1)C(=O)O)C(=O)O` (single isomer, unassigned) [EO, 2-[2-(3-Benzyloxymethyl-3H-imidazol-4-yl)-1-carboxy-ethylamino]-4-methyl-pentanoic acid], for which the Ki at ACE-2 [1] was above 500 nM; at ACE-2 [2] it was above 500 nM; on ACE (Sigma, A2580) it was above 50000 nM; on Carboxypeptidase A it was above 50000 nM.

Turning to `CC(C)CC(N[C@@H](Cc1c[nH]cn1)C(N)=O)C(=O)O` (single isomer, unassigned) [EV, 2-[1-Carbamoyl-2-(1H-imidazol-4-yl)-ethylamino]4-methyl-pentanoic acid], the Ki is above 500 nM at ACE-2 [1]; above 500 nM at ACE-2 [2]; above 50000 nM on ACE (Sigma, A2580); above 50000 nM on Carboxypeptidase A.

`CC(C)CC(N[C@@H](Cc1c[nH]cn1)C(=O)Nc1ccc([N+](=O)[O-])cc1)C(=O)O` (single isomer, unassigned) [EX, 2-[2-(1H-Imidazol-4-yl)-1-(4-nitro-phenylcarbamoyl)ethylamino]-4-methyl-pentanoic acid]: the Ki is above 500 nM at ACE-2 [1]; above 500 nM at ACE-2 [2]; above 50000 nM on ACE (Sigma, A2580); above 50000 nM at Carboxypeptidase A.

For `CC(C)CC(N[C@@H](Cc1cncn1Cc1ccccc1)C(=O)O)C(=O)O` (single isomer, unassigned) [EZ, 2-[2-(3-Benzyl-3H-imidazol-4-yl)-1-carboxy-ethylamino]-4-methyl-pentanoic acid], the Ki on ACE-2 [1] was above 500 nM; at ACE-2 [2], below 100 nM; on ACE (Sigma, A2580), above 50000 nM; at Carboxypeptidase A it was above 50000 nM. In addition, the “relative activity of the diastereomers EZ and FA” value at ACE-2 [1] (assay not given) is reported as “more active diastereomer”.

With `CC(C)CC(N[C@@H](Cc1cncn1COCc1ccccc1)C(=O)O)C(=O)O` (single isomer, unassigned) [FG, 2-[2-(3-Benzyloxymethyl-3H-imidazol-4-yl)-1-carboxy-ethylamino]-4-methyl-pentanoic acid], the Ki at ACE-2 [1] is above 500 nM; on ACE-2 [2], above 500 nM; on ACE (Sigma, A2580) it was above 50000 nM; on Carboxypeptidase A, above 50000 nM.

Consider `CC(C)CC(N[C@@H](Cc1cncn1COCc1ccccc1)C(=O)O)C(=O)O` (single isomer, unassigned) [FH, 2-[2-(3-Benzyloxymethyl-3H-imidazol-4-yl)-1-carboxy-ethylamino]-4-methyl-pentanoic acid], for which the Ki on ACE-2 [1] was above 500 nM; on ACE-2 [2], above 500 nM; at ACE (Sigma, A2580) it was above 50000 nM; on Carboxypeptidase A it was above 50000 nM.

`COc1ccc(CCNC(=O)[C@H](Cc2cnc[nH]2)NC(CC(C)C)C(=O)O)cc1` (single isomer, unassigned) [FK, 2-{2-(3H-Imidazol-4-yl)-1-[2-(4-methoxy-phenyl)-ethylcarbamoyl]-ethylamino}-4-methyl-pentanoic acid]: the Ki at ACE-2 [1] is above 500 nM; at ACE-2 [2], above 500 nM; on ACE (Sigma, A2580), above 50000 nM; on Carboxypeptidase A, above 50000 nM.

In the case of `CC(C)CC(N[C@H](CO)Cc1c[nH]cn1)C(=O)O` (single isomer, unassigned) [FO, 2-[1-Hydroxymethyl-2-(1H-imidazol-4-yl)-ethylamino)4-methyl-pentanoic acid], the Ki at ACE-2 [1] is above 500 nM; at ACE-2 [2], above 500 nM; at ACE (Sigma, A2580), above 50000 nM; on Carboxypeptidase A it was above 50000 nM.

In the case of `CC(C)CC(N[C@@H](Cc1cnc[nH]1)C(=O)NCCc1ccccc1)C(=O)O` (single isomer, unassigned) [FW, 2-[2-(3H-Imidazol-4-yl)-1-phenethylcarbamoyl-ethylamino]-4-methyl-pentanoic acid], the Ki at ACE-2 [1] is above 500 nM; at ACE-2 [2], above 500 nM; on ACE (Sigma, A2580), above 50000 nM; at Carboxypeptidase A, above 50000 nM.

In the case of `CCCCC(N[C@@H](Cc1cncn1Cc1ccccc1)C(=O)O)C(=O)O` (single isomer, unassigned) [FY, 2-[2-(3H-Benzyl-3-imidazol-4-yl)-1-carboxy-ethylamino]-hexanoicacid], the Ki at ACE-2 [1] was above 500 nM; on ACE-2 [2] it was below 100 nM; at ACE (Sigma, A2580), above 50000 nM; on Carboxypeptidase A, above 50000 nM.

`CC(C)CC(N[C@@H](Cc1cncn1Cc1cccc([N+](=O)[O-])c1)C(=O)O)C(=O)O` (single isomer, unassigned) [GB, 2-[1-Carboxy-2-[3-(3-nitro-benzyl)-3H-imidazol-4-yl]-ethylamino]-4-methyl-pentanoic acid]: the Ki at ACE-2 [1] is above 500 nM; on ACE-2 [2], 100 to 500 nM; at ACE (Sigma, A2580) it was above 50000 nM; at Carboxypeptidase A, above 50000 nM.
